Data as given in patent US7273847B2, “Peptides with antioxidant and antimicrobial properties” (priority 2000, dated 2007).

Assays:
[1] = tested on: LDL; assay: TBARS assay of copper-induced oxidation of LDL; format: biochemical, human; conditions: for TBARS LDL Malondialdehyde: mean ± S.E.M., n=3
Method: Substrates for lipid oxidation included mixtures of natural and synthetic glycerophospholipids that are found in pulmonary surfactant and human LDL. The surfactant lipid mix, composed of egg phosphatidylcholine, dipalmitoylphosphatidylcholine, cholesterol and 1-oleoyl-2-linoleoyl-sn-glycero-3-phosphocholine (1:1:0.15:0.15, w/w, respectively) (Avanti Polar Lipids) in chloroform, was dried to a film under nitrogen. Following hydration in PBS or 0.15 M NaCl for 30 min, multilamellar vesicles were generated by vigorous vortexing for 5 minutes. LDL were isolated from the plasma of normal blood donors by density gradient ultracentrifugation (density=1.019-1.063 g/ml) as previously described in Qin et al., Am. J. Physiol. 274(5 Pt 2): H1836-1840 (1998), and stored in saline-EDTA. Just prior to use, EDTA was removed by dialysis against PBS, and the concentration of LDL was determined by Lowry assay (in milligrams of LDL-associated protein).
Stock solutions of 10 mM CuSO4 were freshly prepared daily. Reaction mixtures containing 1 mg/mi surfactant lipids or 150 μg/ml LDL were incubated with 10 μM CuSO4 for 24 hours or 4 hours, respectively, in the presence of putative oxidation inhibitors or controls at 37° C. in a shaking water bath in accordance with the method of Gelvan et al., Biochim. Biophys. Acta 1035(3):353-360 (1990). Control reactions which included LDL only, 10 μM CuSO4 or protein controls of bovine serum albumin (BSA), rat IgG, recombinant MBP, rat serum and human complement C1q were performed concurrently with experimental samples. Thiobarbituric acid-reactive substances (TBARS) were measured using a method adapted from Gelvan et al., Biochim. Biophys. Acta 1035(3):353-360 (1990). Samples and 0-10 μM […] standards were developed by addition of a solution composed of 0.375% thiobarbituric acid, 15% trichloroacetic acid, and 0.25N HCl at a volume ratio of 1:2, sample: developer. Following incubation at 95° C. for 30 minutes and centrifugation at 14,000 rpm for 15 minutes, an aliquot was read at 540 nm in a spectrophotometer. For continuous assessment of lipid oxidation, the accumulation of conjugated dienes during LDL oxidation was monitored spectrophotometrically in accordance with the method of Esterbauer et al., Free Rad. Med. Biol. 13, 341-390 (1992). Mixtures of 150 μg/ml LDL, 10 μM copper, and various amounts of surfactant proteins or control proteins were placed in quartz cuvettes and allowed to oxidize at room temperature over 335 minutes. Conjugated diene formation was assessed by measuring absorbance at 234 nm in a spectrophotometer.
The data are set forth graphically in FIG. 3. Various concentrations of recombinant wild type SP-A (circle), mutant SP-A containing a deletion of the collagen-like domain (square) and mutant SP-A containing only the neck and C-lectin domain (CLD) (triangle) were incubated with LDL in the presence of 10 μM Cu^2+, and lipid peroxidation was quantified by TBARS assay. Data are means, n=3-4.

[2] = tested on: surfactant lipids; assay: TBARS assay of copper-induced oxidation of surfactant lipids; format: biochemical
[3] = tested on: E. coli K12; assay: Radial diffusion growth inhibition in agar; format: cell-based; conditions: for Inhibition of E. coli growth in presence of anti-mouse SP-A / anti-mouse SP-D antibodies / Inhibition of E. coli growth in presence of excess LPS vesicles: radial diffusion; for Inhibition of E. coli growth in presence of excess LPS vesicles: for SP-A>SP-D
Method: (§1) A radial diffusion method was therefore used to examine the effect of the collectins and their individual structural domains on the growth of E. coli that were immobilized in agar (FIGS. 8,9). Wells were bored into plates containing agar impregnated with 2×10^6 E. coli/ml or GBS. Proteins to be tested were introduced into the wells and the plates were incubated overnight at 37° C.

[4] = tested on: GBS; assay: Radial diffusion growth inhibition in agar; format: cell-based; conditions: 0.5 and 5.0 μg added
Method: as §1

[5] = tested on: surfactant lipids; conditions: comparison value; read-out: I.C.50 of antioxidant serum lipoprotein; cited from earlier work
[6] = tested on: LDL; assay: Western (immunoblot) analysis of protein carbonyl derivatives formed during copper mediated LDL oxidation; format: biochemical, human; conditions: SP-A 10 μg/ml, SP-D 1 μg/ml; alkylated SP-A 50 μg/ml, alkylated SP-D 10 μg/ml
Method: Proteins were analyzed for carbonyl modification of amino acid side groups that occur during lipid oxidation, as described in Levine et al., Methods Enzymol. 186, 464-478 (1990). Briefly, proteins that were included in reactions mixtures with LDL and 10 μM copper were derivatized to 2,4-dinitrophenylhydrazones (DNP-hydrazones) by reaction with 2,4-dinitrophenylhydrazine (DNPH), size fractionated by 8-16% SDS-PAGE under reducing conditions and electrophorectically transferred to nitrocellulose membranes (Oxyblot, Intergen). The membrane was sequentially incubated with a rabbit anti-DNP IgG and a horseradish peroxidase-conjugated goat anti-rabbit IgG. Blots were developed by HRP-dependent oxidation of a chemiluminescent substrate, and visualized using autoradiography.
To determine if the surfactant proteins act as sinks for reactive lipid intermediates, covalent modification of SP-A and SP-D during LDL oxidation was assessed using a western analysis technique that detects carbonyl adducts (Levine et al., Methods Enzymol. 186: 464-78 (1990)). As depicted by FIG. 4, oxidative modification of proteins that occurred during copper induced LDL oxidation were determined by Western analysis using an antibody to DNP-derivatized carbonyl moieties. Reaction mixtures contained LDL only, LDL+Cu^2+, LDL+Cu^2++albumin+10 μg/ml SP-A, LDL+Cu^2++albumin+1 μg/ml SP-D, LDL+Cu^2++albumin, LDL+Cu^2++albumin+50 μg/ml iodoacetamide treated SP-A, LDL+Cu^2++albumin+10 μg/ml iodoacetamide treated SP-D, 50 μg/ml albumin+50 μg/ml iodoacetamide treated SP-A, albumin+10 μg/ml iodoacetamide treated SP-D.

## Clq: human complement C1q, the first component of complement [reference compound]
[1]; 50 μg/ml
  Effect on LDL lipid oxidation: no effect on LDL lipid oxidation
[1]; LDL + Cu2+ + 50 μg/ml protein
  TBARS LDL Malondialdehyde: 4.16 ± 0.05 µM
[2]; 50 μg/ml control protein
  Protection from oxidation of surfactant lipids: no protection from oxidation
[2]; Lipid + Cu2+ + 50 μg/ml protein, mean ± S.E.M., n=3
  TBARS Surfactant lipids Malondialdehyde: 1.15 ± 0.07 µM

## lysozyme: positive control protein lysozyme [reference compound]
[3]; 0.5 and 5.0 μg added
  Clearing in E. coli plates: dose-dependent clearing
[4]
  Clearing in GBS plates: dose-dependent clearing

## recombinant mouse SP-A: recombinant mouse SP-A
[3]
  Inhibition of E. coli growth in presence of anti-mouse SP-A / anti-mouse SP-D antibodies: blocked
  Inhibition of E. coli growth in presence of excess LPS vesicles: blocked

B1: recombinant mouse SP-D: recombinant mouse SP-D (protein)
chain: AEMKSLSQRSVPNTCTLVMCSPTENGLPGRDGRDGREGPRGEKGDPGLPGPMGLSGLQGPTGPVGPKGENGSAGEPGPKGERGLSGPPGLPGIPGPAGKEGPSGKQGNIGPQGKPGPKGEAGPKGEVGAPGMQGSTGAKGSTGPKGERGAPGVQGAPGNAGAAGPAGPAGPQGAPGSRGPPGLKGDRGVPGDRGIKGESGLPDSAALRQQMEALKGKLQRLEVAFSHYQKAALFPDGRSVGDKIFRTADSEKPFEDAQEMCKQAGGQLASPRSATENAAIQQLITAHNKAAFLSMTDVGTEGKFTYPTGEPLVYSNWAPGEPNNNGGAENCVEIFTNGQWNDKACGEQRLVICEF
[3]
  Inhibition of E. coli growth in presence of anti-mouse SP-A / anti-mouse SP-D antibodies: blocked
  Inhibition of E. coli growth in presence of excess LPS vesicles: blocked

B2: ApoAIV: antioxidant serum lipoprotein ApoAIV (protein, UniProt P06727 21-396, looked up)
Apolipoprotein A-IV: EVSADQVATVMWDYFSQLSNNAKEAVEHLQKSELTQQLNALFQDKLGEVNTYAGDLQKKLVPFATELHERLAKDSEKLKEEIGKELEELRARLLPHANEVSQKIGDNLRELQQRLEPYADQLRTQVSTQAEQLRRQLTPYAQRMERVLRENADSLQASLRPHADELKAKIDQNVEELKGRLTPYADEFKVKIDQTVEELRRSLAPYAQDTQEKLNHQLEGLTFQMKKNAEELKARISASAEELRQRLAPLAEDVRGNLRGNTEGLQKSLAELGGHLDQQVEEFRRRVEPYGENFNKALVQQMEQLRQKLGPHAGDVEGHLSFLEKDLRDKVNSFFSTFKEKESQDKTLSLPELEQQQEQQQEQQQEQVQMLAPLES
[5]
  IC50: 50 nM

B3: alkylated SP-D: rat SP-D alkylated by incubation with 0.5 M iodoacetamide (protein, UniProt P35248 20-374, looked up)
Pulmonary …: AEMKTLSQRSITNTCTLVLCSPTENGLPGRDGRDGREGPRGEKGDPGLPGPMGLSGLPGPRGPVGPKGENGSAGEPGPKGERGLVGPPGSPGISGPAGKEGPSGKQGNIGPQGKPGPKGEAGPKGEVGAPGMQGSAGAKGPAGPKGERGAPGEQGAPGNAGAAGPAGPAGPQGAPGSRGPPGLKGDRGAPGDRGIKGESGLPDSAALRQQMEALNGKLQRLEAAFSRYKKAALFPDGQSVGDKIFRAANSEEPFEDAKEMCRQAGGQLASPRSATENAAVQQLVTAHSKAAFLSMTDVGTEGKFTYPTGEALVYSNWAPGEPNNNGGAENCVEIFTNGQWNDKACGEQRLVICEF
modifications: alkylated with iodoacetamide
notes: rat SP-D alkylated by incubation with 0.5 M iodoacetamide
[1]; LDL + Cu2+ + 10 μg/ml protein
  TBARS LDL Malondialdehyde: 3.92 ± 0.14 µM
[6]
  LDL oxidation in carbonyl Western analysis: neither alkylated SP-A at 50 μg/ml or alkylated SP-D at 10 μg/ml inhibited lipid oxidation
